Test results from patent US11590129B2, “Combination therapy with an antitumor alkaloid” (PHARMA MAR, S.A., priority 2010, dated 2023).
Where two headings read alike, the source gives them in different places.

Key:
[1] = test system: U87-MG human glioblastoma cell line; assay: cells
Experimental: (§1) a. […] Briefly, cells were harvested and seeded in 96 well microtiter plates at a density of 5,000 cells in 150 μL of culture medium and incubated for 24 hours in drug-free medium before treatment with vehicle alone or test compounds for 72 h.
(§2) The cytotoxic effect was measured by the MTT reduction assay, in which 3-(4,5-Dimethylthiazol-2-yl)-2,5-diphenyltetrazolium bromide, a tetrazole, which is reduced to purple formazan in the mitochondria of living cells, was used. MTT (50 μL of 1 mg/mL stock solution) was added to the wells and incubated for 8 hours at 37° C. until formazan crystals were formed. After gently removing the culture medium, DMSO was added to dissolve the insoluble purple formazan product into a colored solution. […] Results were expressed as percentage of control cell growth.
(§3) b. In a second set of assays, A549 human tumor cells were incubated with PM01183 in combination with each of the agents mentioned above.
(§4) As a visual aid, response values were plotted on a scatter plot with dose ratios given on the x-axis and % response values on the y-axis. […] In cases where response values at the two endpoints were approximately equivalent, points lying above or below this predicted line of additivity could be interpreted as representing antagonistic or synergistic drug interaction, respectively.
(§5) Additional serial dilutions were prepared in serum-free culture medium to achieve a final 4× concentration. Aliquots of 50 μL of each diluted compound were added per well.
U87-MG was the human glioblastoma cell line selected for this assay.

[2] = test system: HGC-27 human gastric carcinoma cell line; assay: cells
Experimental: as §1, §2, §3, §4, §5
HGC-27 was the human gastric carcinoma cell line selected for this assay.

[3] = test system: HepG2 human hepatocellular liver carcinoma cell line; assay: MTT cytotoxicity assay in HepG2 cells: IC50 of single agents and combinations with PM01183; format: cell-based; conditions: read-out: IC50
Experimental: as §1, §2, §3, §4, §5
HepG2 was the human hepatocellular liver carcinoma cell line selected for this assay.

[4] = test system: PANC-1 human pancreatic carcinoma cell line; assay: cells
Experimental: as §1, §2, §3, §4, §5
PANC-1 was the human pancreatic carcinoma cell line selected for this assay.

[5] = test system: A549 human lung carcinoma cell line; assay: MTT cytotoxicity assay in A549 cells: IC50 of single agents and combinations with PM01183; format: cell-based
Experimental: as §5
A549 was the human lung carcinoma cell line selected for this assay.
as §1, §2, §3, §4

[6] = test system: A673 human rhabdomyosarcoma cell line; assay: cells
Experimental: as §1, §2, §3, §4, §5
A673 was the human rhabdomyosarcoma cell line selected for this assay.

[7] = test system: PC-3 human prostate cancer cell line; assay: cells
Experimental: as §1, §2, §3, §4, §5
PC-3 was the human prostate adenocarcinome cell line selected for this assay.

[8] = test system: RXF-393 human kidney carcinoma cell line; assay: cells
Experimental: as §1, §2, §3, §4, §5

[9] = test system: MDA-MB-231 human breast adenocarcinoma cell line; assay: cells
Experimental: as §1, §2, §3, §4, §5

[10] = test system: IGROV-1 human ovarian adenocarcinoma cell line; assay: cells
Experimental: as §1, §2, §3, §4, §5
IGROV-1 was the human ovarian adenocarcinoma cell line selected for this assay.

[11] = test system: HT-29 human colon adenocarcinoma cell line; assay: cells
Experimental: as §1, §2, §3, §4, §5
HT-29 was the human colon adenocarcinoma cell line selected for this assay.

[12] = test system: SK-MEL-2 human melanoma cell line; assay: cells
Experimental: as §1, §2, §3, §4, §5
SK-MEL-2 was the human melanoma cell line selected for this assay.

[13] = Homo sapiens, HepG2, 72 hours drug exposure, MTT

Compound | IC50 ([1]; Homo sapiens, U-87 MG, 72 h) [µM] | IC50 ([2]; Homo sapiens, HGC-27, 72 h) [µM] | IC50 [3, 13] [µM] | IC50 ([6]; Homo sapiens, A673, 72 h) [µM] | IC50 ([8]; Homo sapiens, RXF 393, 72 h) [µM] | IC50 ([9]; Homo sapiens, MDA-MB-231, 72 h) [µM] | IC50 ([10]; Homo sapiens, IGROV-1, 72 h) [µM] | IC50 ([5]; read-out: IC50) [µM] | IC50 [6] [µM] | IC50 [7] [µM] | IC50 [9] [µM] | IC50 [10] [µM] | IC50 [11] [µM] | further results
C#Cc1cccc(Nc2ncnc3cc(OCCOC)c(OCCOC)cc23)c1 [Erlotinib, erlotinib] | 149 | 7.5 | 8.6 | 50 | 4.8 | 100 | 7.91 | – | – | – | – | – | – | IC50 ([4]; Homo sapiens, PANC-1, 72 h): 0.416 µM; IC50 ([5]; Homo sapiens, A549, 72 h): 10 µM; IC50 ([7]; Homo sapiens, PC-3, 72 h): 233 µM; IC50 ([11]; Homo sapiens, HT-29, 72 h): 25.6 µM
CO[C@@]12[C@H](COC(N)=O)C3=C(C(=O)C(C)=C(N)C3=O)N1C[C@@H]1N[C@@H]12 [Mitomycin C, mitomycin C] | – | – | – | – | – | – | – | 249 | 2.99 | 10 | 2 | 3 | 2 | IC50 [12]: 0.9 µM; IC50 [8]: 9 µM
O=C1[O][Pt]2([NH][C@@H]3CCCC[C@H]3[NH]2)[O]C1=O [Oxaliplatin, oxaliplatin] | – | – | – | – | – | – | – | 900 | 78 | 171 | 108 | 8.5 | 103 | IC50 [1]: 190 µM; IC50 [2]: 106 µM; IC50 [3]: 28 µM; IC50 [4]: 184 µM
CC[C@]1(O)C[C@H]2CN(CCc3c([nH]c4ccccc34)[C@@](C(=O)OC)(c3cc4c(cc3OC)N(C=O)[C@H]3[C@@](O)(C(=O)OC)[C@H](OC(C)=O)[C@]5(CC)C=CCN6CC[C@]43[C@@H]65)C2)C1 [Vincristine, vincristine] | 0.1 | 0.0125 | 0.06 | 0.0086 | 0.0173 | 0.05 | 0.379 | – | – | – | – | – | – | IC50 ([5]; Homo sapiens, A549, 72 hours drug exposure, MTT, read-out: IC50): 0.25 µM
